The source of these data is publication PMC12631002, “Bioactivity Profiles of Progressively Ring‐Fluorinated Cyclohexyl Motifs in the WKYMVm Peptide as Formylpeptide FPR2 Agonists and in Keto‐Piperazines as Antitrypanosome Agents” (Chembiochem, 2025).

One data set can be described thus: Log P assessment (HPLC). Format: physicochemical. The source says: (§1) Accordingly N‐Boc amino acid esters 20a–d were hydrolyzed to their free carboxylic acids 25a–d and then progressed in each case to the corresponding Weinreb–Nahm amides^[ [33] ^] 26a–d. N‐Boc deprotection followed by coupling to N‐Boc‐tryptophan generated dipeptides 27a–d as the required precursors for cyclization. The intramolecular Pictet–Spengler condensations, followed a previous protocol^[ [19] ^] and 4‐monofluoro 28a, 3,5‐difluoro‐ 28b, and 2,3,4,5,6‐pentafluoro‐ 28d keto‐piperazines could be prepared following this method. It is noteworthy that the pentafluoro‐ analog was accompanied by what appeared to be a high level of defluorinated side products, however 28d was conveniently purified by HPLC rather than column chromatography. […] Thus, 4‐monofluoro‐ 28a, 3,5‐difluoro‐ 28b, and 2,3,4,5,6‐pentafluoro‐ 28d cyclohexyl‐amino acid tryptophan diketopiperazines were prepared and explored in antitrypanosomal assays. Given the importance of molecular lipophilicity in the context of medicinal chemistry, a Log P assessment (HPLC) was made of the diketopiperazines products 28a, 28b, and 28d as illustrated in Table 1 . As anticipated, there is an increase in polarity (LogP reduction) as the number of fluorines increases. We also know from previous work[[6b]] that the Ph ring is more polar than cyclohexane but less polar than the progressively fluorinated cyclohexane rings. The keto‐piperazines 28a, 28b, and 28d were assayed^[ [20] ^] against growing cells of T. brucei and T. cruzi, as well as the human cell line, HeLa and the data is presented in Table 1.

The test system of another data set is HeLa. The data set can be described thus: Mammalian cell activity. The format is cell-based. The conditions noted are these: Homo sapiens. On the procedure: Bioactivities assays of Janus face Tryptophan […]
Fluorescence was recorded using a FLx
800 plate reader (BioTek) with an excitation wavelength 530–535 nm and emission wavelength of 590–610 nm using Gen5 Reader Control 2.0 Software (BioTek). EC50 values were determined using a 4-parameter non-linear logistic regression equation using GraFit 5.0 (Erithacus Software). SD values were calculated based on curve fitting to n biological replicates performed in parallel.

The test system of the next data set is T. brucei. The experiment in a line: Trypanocidal activity against growing cells. The format is cell-based, Trypanosoma brucei.
Text: as §1
Bioactivities assays of Janus face Tryptophan
Parasites were grown in different medium (e.g. T. brucei was grown in HMI-11 medium) with 10% heat-inactivated foetal bovine serum. parasites were counted using CASY TT Cell Counter. Fluorescence was recorded using a FLx 800 plate reader (BioTek) with an excitation wavelength 530–535 nm and emission wavelength of 590–610 nm using Gen5 Reader Control 2.0 Software (BioTek). EC50 values were determined using a 4-parameter non-linear logistic regression equation using GraFit 5.0 (Erithacus Software). SD values were calculated based on curve fitting to n biological replicates performed in parallel.

With `O=C1NC(CC2CCC(F)CC2)C2NC1Cc1c2[nH]c2ccccc12` (stereo not shown) [28a], the chromatographic logP (in general, a lipophilicity value derived from retention on a column) in “Log P assessment (HPLC)” worked out at 3.02. Also, the concentration giving a half-maximal response (EC50) – broadly, the midpoint of the concentration-response curve – was found to be 105 ± 6.25 µM in the data set on HeLa and 10.7 ± 0.46 µM with T. brucei (Trypanosoma brucei). Besides, the “trypanocidal activity against T. brucei” value in the data set with T. brucei (comparison within series and with 29) is “best compound”.
